# Measurements: patent US20090186915A1, “Compositions and methods for treatment of glioblastoma, gliosarcoma, NSCLC, and head and neck cancer” (Unibioscreen S. A., priority 2006, published 2009)
# Like-named read-outs stand apart in the source and are kept apart here.
# Columns and labels:
# BxPC3 = assay: MTT overall cell growth, BxPC3 cells; type: cell-based; conditions: Homo sapiens
# Protocol: Tests were performed in order to rapidly, i.e. within 5 days, measure the effect of the compound of example 2 on the overall cell growth. The test measures the number of metabolically active living cells that are able to transform the yellow product 3-(4,5-dimethylthiazol-2-yl)-2,5-diphenyl tetrazolium bromide (herein referred as MTT) into the blue product formazan dye by mitochondrial reduction. The amount of formazan obtained at the end of the experiment, measured by means of a spectrophotometer, is directly proportional to the number of living cells. Optical density determination thus enables a quantitative measurement of the effect of the investigated compounds as compared to the control condition (untreated cells) and/or to other reference compounds.
# Six human cancer cell lines described in table 1 were used in the following MTT tests. These cell lines cover six histological cancer types, being prostate, glioma, pancreas, colon, lung and breast cancers. Cells were allowed to grow in 96 well micro-wells with a flat bottom with an amount of 100 μl of cell suspension per well with 1,000 to 4,000 cells/well depending on the cell type used. Each cell line was seeded in a well known MEM 10% serum culture medium. […]
# After 72 hours of incubation at 37° C. with (experimental conditions) or without (control condition) the compound to be tested, the medium was replaced by 100 μl MTT dissolved in RPMI (1640 without phenol red) at a concentration of 1 mg/ml. […] The micro-wells were shaken for 5 minutes and read on a spectrophotometer at wavelengths of 570 nm (maximum formazan absorbance) and 630 nm (back-ground noise).
# For each experimental condition, the mean optical density was calculated, as well as the percentage of remaining living cells in comparison with the control.
# The overall growth of human cancer cell lines was determined by means of the calorimetric MTT (3-[4,5-dimethylthiazol-2-yl]-diphenyl tetrazolium bromide; Sigma) assay, as detailed previously.
# DU-145 = assay: Cell cycle kinetics by flow cytometry (PI), DU-145; type: cell-based, human; conditions: 1 μM
# Protocol: The cell cycle kinetics of prostate cancer cells left untreated or incubated with UNBS5162 were determined by flow cytometry analysis of propidium iodide (PI) nuclear staining, using previously detailed methodology. Each sample was evaluated in triplicate. Flow cytometry was undertaken using an Epics XL.MCL flow cytometer and the FACScan/CellQuest software system (Becton Dickinson, Miami, Fla.).
# BFU-E = assay: HALO hematotoxicity assay, mouse BFU-E; type: cell-based; conditions: 5 days culture, iATP
# Protocol: Investigation of the hematotoxic potential of UNBS5162 was undertaken by HemoGenix (Colorado Springs, Colo.). The effects of UNBS5162 on stem and progenitor cell populations from murine and human bone marrow were assessed using HALO (Hematopoietic/Hematotoxicity Assay through Luminescence Output) technology. Stem and hematopoietic progenitor cell populations were isolated from mouse and human bone marrow samples, plated at a concentration of 1.0×10^4 cells/well and cultured for 5 and 7 days, respectively, in the presence of growth factors and increasing concentrations of UNBS5162 ranging from 0.5 nM to 50 μM. The proliferative or growth potential of cell populations was determined from intracellular ATP (iATP) concentrations and a luciferin/luciferase bioluminescence signal detection system. All samples were assayed in eight replicates. The results are presented as estimated inhibitory concentration (IC) values.
# P-glycoprotein = assay: P-gp ATPase activity (P-gp Drug interaction Assay Kit); type: biochemical
# Protocol: In order to test drug interaction with P-glucoprotein (herein-after referred as P-gp) we used an assay based on the study of modulation of ATPase activity from enriched P-gp membrane vesicle preparation (the following kit has been used: P-gp Drug interaction Assay Kit commercially available from SPI BIO France). P-gp ATPase activity was measured by a spectrophotometric method based on monitoring of ADP formation in the vesicle suspension medium. The basal ATPase activity was defined as the activity determined in the absence of any added drug. […]
# Hs683 or U373 cells = assay: Apoptosis by Annexin V-FITC flow cytometry, glioma cells; type: cell-based, human; conditions: 10 μM for 72 h
# Protocol: UNBS5162-induced apoptotic effects as evaluated by flow cytometry with Annexin V-FITC staining of Hs683 or U373 cells either left untreated (0 μM) or treated with 1 and 10 μM UNBS5162 for 72 h, either as a single treatment (gray bars) or as repeated (“chronic”; black bars) treatment (i.e. 1 μM or 10 μM each day for five days, “5×1”). The data are presented as means+SEM. “*” means that all GBM cells died before the end of the experiment.
structure (smiles),measurement,setting,value
"CN(C)CCN1C(=O)c2cccc3cc(NC(N)=O)cc(c23)C1=O [UNBS5162, N-{2-[2-(dimethylamino)ethyl]-1,3-dioxo-2,3-dihydro-1H-benzo[de]isoquinolin-5-yl}urea]",IC50,"BxPC3; BXPC-3, 72 h, Bx-PC-3, 3 days of culturing, mean of six determinations, read-out: IC50 (μM) In Vitro Growth Inhibition",9.1 µM
same,IC50,"BxPC3; BXPC-3, BxPC3, 72 hours incubation, range of molar concentrations, read-out: IC50",5 to 10 µM
same,cell cycle kinetics,DU-145,did not significantly (P>0.05) modify
same,IC50,BFU-E; 120 h,5.53 µM
same,IC90,BFU-E; 120 h,9.11 µM
same,IC75,BFU-E,7.03 µM
same,modulation of Pgp ATPase activity,P-glycoprotein; 100 μM (data not shown),do not affect Pgp ATPase activity
same,modulation of basal P-gp ATPase activity,"P-glycoprotein; 2, 10, and 50 μM",does not affect ATPase activity
same,apoptotic events (Annexin V-FITC),Hs683 or U373 cells,induces moderate apoptotic events
